# Data from patent US9856240B2, “Compounds that modulate intracellular calcium” (CalciMedica, Inc., priority 2011, dated 2018).
# Tests used:
# [1] = molecular target: T1, recombinant human STIM1 and Orai1 (HEK-293 cells) (Homo sapiens, UniProt Q96D31); assay: Fluorescence-based assay of store-operated calcium entry in Orai1/STIM1 stable cells; assay type: cell-based; set-up: key to Orai1/STIM1 (IC50, μmol): A < 0.6 μmol; 0.6 μmol ≦ B ≦ 1.2 μmol; C > 1.2 μmol; — = no fit; conditions: for IC50: FLIPR fluo-4, read-out: Orai1/STIM1 (IC50, μmol); for Orai1/STIM1 (IC50, μmol): FLIPR fluo-4
# T1 construct: expressed in transfected cells; host or cells: HEK-293 cells stably expressing both proteins
# Experimental: A. Fluorescence-Based Assay of Store-Operated Calcium Entry in Orai1/STIM1 Stable Cells.
# Cells stably expressing recombinant human STIM1 and Orai1 are generated by transfecting a human Orai1 expression plasmid (pcDNA3.1-Orai1-cmyc) into HEK-293 cells stably overexpressing human STIM1 (Roos et al. 2005 JCB 169(3): 435-445). Colonies of cells stably expressing both STIM1 and Orai1 proteins are selected and then subcloned by limiting dilution. Cells were cultured at 37° C./6% CO2 in complete medium with 10% FBS and appropriate selection markers.
# The day prior to performing the assay Orai1/STIM1 stable cells are plated in 50 μL of complete medium at 90-95% confluence in a 384 well plate. Cells are grown at 37° C./6% CO2 overnight. On the day of the assay, 1.5 μM fluo-4-AM (Invitrogen) in complete medium is added to the cells, which are then incubated for 1 hour at RT. Cells are washed once in Ca^2+-free HBSS (Hank's buffered saline solution) and 35 μl of Ca^2+-free HBSS is added to each well. Test compounds are added to wells in a 10 μL Ca^2+-free HBSS solution, prepared at 4.5× the desired final concentration, and incubated for 30 minutes at RT. The initial baseline fluorescence signal is then measured with a FLIPR^384 (Molecular Devices) plate reader. Calcium entry is initiated by adding 5 μl of 10× CaCl2 (10 mM) in HBSS, and changes in cellular fluorescence are measured with the FLIPR^384 plate reader. In each well, the magnitude of the fluorescence signal as a result of calcium entry into the cell is determined by calculating the difference between the peak fluorescence signal measured after calcium addition and the initial baseline fluorescence signal (designated Peak-Basal). IC50 values are typically calculated as the concentration that inhibited 50% of the Peak-Basal signal (Table A).
# [2] = tested on: store-operated calcium entry in RBL-2H3 cells; assay: Fluorescence-based assay of store-operated calcium entry in RBL-2H3 cells; assay type: cell-based; conditions: Rattus norvegicus, thapsigargin, FLIPR Fluo-4, read-out: RBL-2H3 (IC50, μmol)
# Experimental: B. Fluorescence-Based Assay of Store-Operated Calcium Entry in RBL-2H3 Cells.
# RBL-2H3 cells are obtained from ATCC and maintained in complete medium with 10% FBS at 37° C./6% CO2.
# The day prior to performing the assay, RBL-2H3 cells are plated in 50 μL of complete medium in a 384 well plate. Cells are grown at 37° C./6% CO2 overnight and grow to 50-60% confluence by the next day. On the assay day, 1.5 μM Fluo-4-AM dye (Invitrogen) in complete medium is added and incubated for 1 hour at RT. Cells are washed twice in Ca^2+-free HBSS buffer and 35 μL Ca^2+-free HBSS buffer is added to each well. 10 μL of a test compound prepared in a Ca^2+-free HBSS solution at 4.5× of the desired concentration is added to a well and incubated for 5 minutes at RT. 10 μL of thapsigargin prepared in a Ca^2+-free HBSS solution at 5.5× of the desired concentration (5.5 uM) is added to each well and incubated for an additional 25 minutes. The initial baseline fluorescence signal is measured with a FLIPR^384 (Molecular Devices) plate reader. 5 μL of 12× calcium in HBSS (12 mM) is added and changes in cellular fluorescence are measured with the FLIPR^384 plate reader. In each well, the change in the fluorescent signal as a function of time due to calcium entry into the cell is determined by calculating the difference between the fluorescent signal measured 7 seconds after calcium addition and the initial baseline fluorescence signal at time zero (t=0). This parameter is designated Upslope. The IC50 value is calculated as the concentration at which 50% of the Upslope is inhibited.
# T1 sequence (Q96D31 whole entry): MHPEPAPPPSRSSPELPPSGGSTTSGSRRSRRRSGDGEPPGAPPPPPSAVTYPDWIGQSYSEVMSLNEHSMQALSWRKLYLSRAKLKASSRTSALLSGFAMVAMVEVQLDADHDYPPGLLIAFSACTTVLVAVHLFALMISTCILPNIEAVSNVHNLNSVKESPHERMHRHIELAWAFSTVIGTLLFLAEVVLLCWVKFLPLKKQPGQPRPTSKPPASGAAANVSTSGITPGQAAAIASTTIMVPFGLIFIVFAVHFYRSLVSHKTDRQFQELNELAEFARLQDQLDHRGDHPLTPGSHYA
SMILES,IC50 [1] [nM],IC50 [2] [nM],"Orai1/STIM1 (IC50, μmol) [1]"
"Cn1cc(Cl)c(C(=O)Nc2ccc(-c3cc4c(cc3Cl)OC(F)(F)O4)cn2)n1 [Example 8, 4-chloro-N-(5-(6-chloro-2,2-difluorobenzo[d][1,3]dioxol-5-yl)pyridin-2-yl)-1-methyl-1H-pyrazole-3-carboxamide]",> 1200,> 1200,
"O=C(Nc1cnc(-c2cc3c(cc2Cl)OC(F)(F)O3)cn1)c1ccnn1C(F)F [Example 33, N-(5-(6-chloro-2,2-difluorobenzo[d][1,3]dioxol-5-yl)pyrazin-2-yl)-1-(difluoromethyl)-1H-pyrazole-5-carboxamide]",,< 600,—
"CCn1nccc1C(=O)Nc1ccc(-c2cc3c(cc2Cl)OC(F)(F)O3)cn1 [Example 12, N-(5-(6-chloro-2,2-difluorobenzo[d][1,3]dioxol-5-yl)pyridin-2-yl)-1-ethyl-1H-pyrazole-5-carboxamide]",600 to 1200,600 to 1200,
"O=C(Nc1ncc(Oc2ccccc2C(F)(F)F)s1)c1c(F)cccc1F [Example 43, (2,6-difluorophenyl)-N-{5-[2-(trifluoromethyl)phenoxy](1,3-thiazol-2-yl)}carboxamide]",> 1200,600 to 1200,
"Cn1nc(C(F)(F)F)c(Cl)c1C(=O)Nc1ccc(-c2cc3c(cc2Cl)OC(F)(F)O3)cn1 [Example 3, 4-chloro-N-(5-(6-chloro-2,2-difluorobenzo[d][1,3]dioxol-5-yl)pyridin-2-yl)-1-methyl-3-(trifluoromethyl)-1H-pyrazole-5-carboxamide]",,< 600,—
"CCn1nc(C)cc1C(=O)Nc1ccc(-c2cc3c(cc2Cl)OC(F)(F)O3)cn1 [Example 6, N-(5-(6-chloro-2,2-difluorobenzo[d][1,3]dioxol-5-yl)pyridin-2-yl)-1-ethyl-3-methyl-1H-pyrazole-5-carboxamide]",> 1200,> 1200,
"Cc1onc(C(=O)Nc2cnc(-c3cc4c(cc3Cl)OC(F)(F)O4)cn2)c1C [Example 25, N-(5-(6-chloro-2,2-difluorobenzo[d][1,3]dioxol-5-yl)pyrazin-2-yl)-4,5-dimethylisoxazole-3-carboxamide]",600 to 1200,< 600,
"O=C(Nc1ccc(-c2cc3c(cc2Cl)OC(F)(F)O3)cn1)c1nsc(Cl)c1Cl [Example 16, 4,5-dichloro-N-(5-(6-chloro-2,2-difluorobenzo[d][1,3]dioxol-5-yl)pyridin-2-yl)isothiazole-3-carboxamide]",,> 1200,—
"Cc1noc(C)c1C(=O)Nc1cnc(-c2cc(C(F)(F)F)nn2C)cn1 [Example 42, 3,5-dimethyl-N-(5-(1-methyl-3-(trifluoromethyl)-1H-pyrazol-5-yl)pyrazin-2-yl)isoxazole-4-carboxamide]",> 1200,> 1200,
"Cc1nocc1C(=O)Nc1ccc(-c2cc3c(cc2Cl)OC(F)(F)O3)cn1 [Example 18, N-(5-(6-chloro-2,2-difluorobenzo[d][1,3]dioxol-5-yl)pyridin-2-yl)-3-methylisoxazole-4-carboxamide]",< 600,< 600,
"Cn1ncc(Cl)c1C(=O)Nc1cnc(-c2cc3c(cc2Cl)OC(F)(F)O3)cn1 [Example 29, 4-chloro-N-(5-(6-chloro-2,2-difluorobenzo[d][1,3]dioxol-5-yl)pyrazin-2-yl)-1-methyl-1H-pyrazole-5-carboxamide]",< 600,< 600,
"Cc1cnoc1C(=O)Nc1ccc(-c2cc3c(cc2Cl)OC(F)(F)O3)cn1 [Example 20, N-(5-(6-chloro-2,2-difluorobenzo[d][1,3]dioxol-5-yl)pyridin-2-yl)-4-methylisoxazole-5-carboxamide]",< 600,< 600,

# Now from value to compound:
IC50 [1] [nM],IC50 [2] [nM],"Orai1/STIM1 (IC50, μmol) [1]",SMILES
600 to 1200,< 600,,"Cc1cc2c(cc1-c1ccc(NC(=O)c3cccn3C)nc1)OC(F)(F)O2 [Example 34, N-(5-(2,2-difluoro-6-methylbenzo[d][1,3]dioxol-5-yl)pyridin-2-yl)-1-methyl-1H-pyrrole-2-carboxamide]"
< 600,< 600,,"CCc1nnsc1C(=O)Nc1ccc(-c2cc3c(cc2Cl)OC(F)(F)O3)cn1 [Example 14, N-(5-(6-chloro-2,2-difluorobenzo[d][1,3]dioxol-5-yl)pyridin-2-yl)-4-ethyl-1,2,3-thiadiazole-5-carboxamide]"
> 1200,> 1200,,"Cn1nc(C(F)(F)F)cc1-c1cnc(NC(=O)c2c(Cl)cnn2C)cn1 [Example 39, 4-chloro-1-methyl-N-(5-(1-methyl-3-(trifluoromethyl)-1H-pyrazol-5-yl)pyrazin-2-yl)-1H-pyrazole-5-carboxamide]"
< 600,< 600,,"Cc1cc2c(cc1-c1cnc(NC(=O)c3c(Cl)cnn3C)cn1)OC(F)(F)O2 [Example 35, 4-chloro-N-(5-(2,2-difluoro-6-methylbenzo[d][1,3]dioxol-5-yl)pyrazin-2-yl)-1-methyl-1H-pyrazole-5-carboxamide]"
< 600,< 600,,"Cc1noc(C)c1C(=O)Nc1ccc(-c2cc3c(cc2Cl)OC(F)(F)O3)cn1 [Example 11, N-(5-(6-chloro-2,2-difluorobenzo[d][1,3]dioxol-5-yl)pyridin-2-yl)-3,5-dimethylisoxazole-4-carboxamide]"
600 to 1200,600 to 1200,,"Cn1cccc1C(=O)Nc1ccc(-c2cc3c(cc2Cl)OC(F)(F)O3)cn1 [Example 1, N-(5-(6-chloro-2,2-difluorobenzo[d][1,3]dioxol-5-yl)pyridin-2-yl)-1-methyl-1H-pyrrole-2-carboxamide]"
< 600,< 600,,"CCn1nccc1C(=O)Nc1cnc(-c2cc3c(cc2Cl)OC(F)(F)O3)cn1 [Example 32, N-(5-(6-chloro-2,2-difluorobenzo[d][1,3]dioxol-5-yl)pyrazin-2-yl)-1-ethyl-1H-pyrazole-5-carboxamide]"
